Calls of active or inactive are those of the source. No cut-off for these calls is given here.
What was measured:
[1] = biological target: T1, Autotaxin (Homo sapiens, UniProt Q13822); assay: Inhibition of human ATX pre-incubated for 45 mins before fluorogenic substrate-3 addition and measured every minute for 30 mins by fluorescence based assay
[2] = system: Mus musculus; assay: (§1) Ex-vivo inhibition of ATX lysoPLD activity in lung homogenate isolated from C57BL/6 mouse model of bleomycin sulfate-induced idiopathic pulmonary fibrosis assessed […] for artificial substrate FS-3 cleavage at 20 mg/kg, po dosed once daily for 31 days followed by bleomycin sulfate challenge on day 3 by fluorescence based assay; type: functional
[3] = system: Mus musculus; assay: (§2) Protection against lung fibrosis in C57BL/6 mouse model of bleomycin sulfate-induced idiopathic pulmonary fibrosis assessed as induction of body weight recovery at 20 mg/kg, po dosed once daily for 31 days followed by bleomycin sulfate challenge on day 3; type: functional, organism-based
[4] = system: Mus musculus; assay: Protection against lung fibrosis in C57BL/6 mouse model of bleomycin sulfate-induced idiopathic pulmonary fibrosis assessed as induction of body weight recovery at 60 mg/kg, po dosed once daily for 31 days followed by bleomycin sulfate challenge on day 3; type: functional, organism-based
[5] = system: Mus musculus; assay: as §1, with “60” for “20”; type: functional
[6] = system: Mus musculus; assay: (§3) Protection against lung fibrosis in C57BL/6 mouse model of bleomycin sulfate-induced idiopathic pulmonary fibrosis assessed as induction of improvement in histopathological changes by measuring modified Ashcroft score level at 60 mg/kg, po dosed once daily for 31 days followed by bleomycin sulfate challenge on day 3 by hematoxylin and eosin staining based assay (reference value: 6.28); type: functional
[7] = system: Mus musculus; assay: as §2, with “induction of improvement in lung texture at 20” for “induction of body weight recovery at 20”, “day 3 by hematoxylin and eosin staining based assay” for “day 3”; type: functional, organism-based
[8] = system: Mus musculus; assay: as §3, with “lung texture” for “histopathological changes”, “Masson” for “hematoxylin and eosin”, “assay” for “assay (reference value: 6.28)”; type: functional
[9] = system: Mus musculus; assay: as §1, with “20 to 60” for “20”; type: functional, organism-based
[10] = system: Mus musculus; assay: (§4) Protection against lung fibrosis in C57BL/6 mouse model of bleomycin sulfate-induced idiopathic pulmonary fibrosis assessed as induction of improvement in lung texture at 20 to 60 mg/kg, po dosed once daily for 31 days followed by bleomycin sulfate challenge on day 3 by hematoxylin and eosin staining based assay; type: functional, organism-based
[11] = system: Mus musculus; assay: as §3, with “20” for “60”; type: functional
[12] = biological target: T1, Autotaxin
Description: Inhibition of human ATX by LPC choline release assay

[13] = system: Mus musculus; assay: as §4, with “at” for “at 20 to”; type: functional, organism-based

Row | Compound | IC50 [1] [nM] | also measured
1 | Cn1cc(C(=O)N/N=C/c2ccc(Cl)cc2)c2cc(-c3nc(CN4CCOCC4)cs3)ccc21 | > 10000 | –
2 | CCn1cc(C(=O)N/N=C/c2ccc3c(c2)OCO3)c2cc(-c3nc(CN4CCOCC4)cs3)ccc21 | > 10000 | –
3 | CCn1cc(C(=O)N/N=C(\C)c2ccc(F)cc2)c2cc(-c3nc(CN4CCOCC4)cs3)ccc21 | 1840 | –
4 | CCn1cc(C(=O)N/N=C/c2ccc(OC)cc2)c2cc(-c3nc(CN4CCCCC4)cs3)ccc21 | 1460 | –
5 | CCn1cc(C(=O)N/N=C/c2ccc3c(c2)OCO3)c2cc(-c3nc(CN4CCN(CCO)CC4)cs3)ccc21 | 1320 | –
6 | CCn1cc(C(=O)N/N=C(\C)c2ccc(F)cc2)c2cc(-c3nc(CN4CCN(C)CC4)cs3)ccc21 | 2530 | –
7 | CCn1cc(NC(=O)OCc2ccccc2)c2cc(-c3nc(CN4CCC(O)CC4)cs3)ccc21 | 970 | –
8 | C/C(=N\NC(=O)c1cn(C)c2ccc(-c3nc(CN4CCN(C)CC4)cs3)cc12)c1ccc(F)cc1 | > 10000 | –
9 | CCn1cc(C(=O)N/N=C(\C)c2ccc(F)cc2)c2cc(-c3nc(CN4CCN(CCO)CC4)cs3)ccc21 | 508 | –
10 | CCn1cc(NC(=O)OCc2cc(Cl)cc(Cl)c2)c2cc(-c3nc(CN4CCC(O)CC4)cs3)ccc21 | 613 | –
11 | CCN1CCN(Cc2csc(-c3ccc4c(c3)c(C(=O)N/N=C/c3ccc(Cl)cc3)cn4CC)n2)CC1 | 2310 | –
12 | CCn1cc(C(=O)N/N=C/c2ccc(F)cc2)c2cc(-c3nc(CN4CCCCC4)cs3)ccc21 | 3960 | –
13 | Cn1cc(C(=O)N/N=C/c2ccc3c(c2)OCO3)c2cc(-c3nc(CN4CCOCC4)cs3)ccc21 | > 10000 | –
14 | CCn1cc(C(=O)N/N=C/c2ccc(F)cc2)c2cc(-c3nc(CN4CCC[C@H]4CO)cs3)ccc21 | 655 | –
15 | CCn1cc(C(=O)N/N=C/c2ccc(F)cc2)c2cc(-c3nc(CN4CCC(C)CC4)cs3)ccc21 | > 10000 | –
16 | CCn1cc(NC(=O)O[C@H](C)c2ccccc2Cl)c2cc(-c3nc(CN4CCC(O)CC4)cs3)ccc21 | 210 | –
17 | CCCC[C@@H](CCCC(=O)NO)NC(=O)CCCCC(=O)Nc1ccccc1 | – | IC50 [12]: 60 nM
18 | CCn1cc(C(=O)N/N=C/c2ccc(F)cc2)c2cc(-c3nc(CN4CCC(O)CC4)cs3)ccc21 | 906 | –

Row | Compound | IC50 [1] [nM] | also measured
19 | CCn1cc(C(=O)N/N=C/c2ccc(F)cc2)c2cc(-c3nc(CN4CCOCC4)cs3)ccc21 | 1370 | –
20 | CCn1cc(C(=O)N/N=C/c2ccc3c(c2)OCO3)c2cc(-c3nc(CN4CCC[C@H]4CO)cs3)ccc21 | 610 | –
21 | CCn1cc(NC(=O)OCc2ccc(F)c(F)c2)c2cc(-c3nc(CN4CCC[C@H]4CO)cs3)ccc21 | 297 | –
22 | CN(C)Cc1csc(-c2ccc3[nH]cc(C(=O)O)c3c2)n1 | 740 | –
23 | CCn1cc(C(=O)N/N=C/c2ccc3c(c2)OCO3)c2cc(-c3nc(CN4CCCCC4)cs3)ccc21 | 1550 | –
24 | CCn1cc(C(=O)N/N=C(\C)c2ccc(F)cc2)c2cc(-c3nc(CN4CCCC4)cs3)ccc21 | 2740 | –
25 | CN1CCN(Cc2csc(-c3ccc4c(c3)c(C(=O)N/N=C/c3ccc(F)cc3)cn4C)n2)CC1 | 5240 | –
26 | CCn1cc(NC(=O)O[C@H](C)c2ccccc2Cl)c2cc(-c3nc(CN4CCC[C@H]4CO)cs3)ccc21 | 199 | –
27 | CCn1cc(C(=O)N/N=C/c2ccc3c(c2)OCO3)c2cc(-c3nc(CN4CCC(C)CC4)cs3)ccc21 | > 10000 | –
28 | Cn1cc(C(=O)N/N=C/c2ccc(F)cc2)c2cc(-c3nc(CN4CCOCC4)cs3)ccc21 | 2870 | –
29 | CN1CCN(Cc2csc(-c3ccc4c(c3)c(C(=O)N/N=C/c3ccc5c(c3)OCO5)cn4C)n2)CC1 | 879 | –
30 | CCn1cc(C(=O)N/N=C/c2ccc(Cl)cc2)c2cc(-c3nc(CN4CCCC4)cs3)ccc21 | 1170 | –
31 | CCc1nc2c(C)cc(N3CCN(CC(=O)N4CC(O)C4)CC3)cn2c1N(C)c1nc(-c2ccc(F)cc2)c(C#N)s1 [ZIRITAXESTAT] | – | Activity [13]: Active; Activity [4]: Active; Activity [5]: 4.03 a.u.
32 | CCn1cc(C(=O)N/N=C/c2ccc(OC)cc2)c2cc(-c3nc(CN4CCOCC4)cs3)ccc21 | > 10000 | –
33 | CCn1cc(C(=O)N/N=C/c2ccc3c(c2)OCO3)c2cc(-c3nc(CN4CCN(C)CC4)cs3)ccc21 | 757 | –
34 | CCn1cc(C(=O)N/N=C/c2ccc(Cl)cc2)c2cc(-c3nc(CN4CCN(CCO)CC4)cs3)ccc21 | 231 | –
35 | CCN1CCN(Cc2csc(-c3ccc4c(c3)c(C(=O)N/N=C(\C)c3ccc(F)cc3)cn4CC)n2)CC1 | 1590 | –
36 | CCN1CCN(Cc2csc(-c3ccc4c(c3)c(C(=O)N/N=C/c3ccc(F)cc3)cn4CC)n2)CC1 | 1350 | –

The next lines start with results.

Row | IC50 [1] [nM] | Compound | also measured
37 | 15.7 | CCn1cc(C(=O)N/N=C(\C)c2ccc(F)cc2)c2cc(-c3nc(CN4CCC[C@H]4CO)cs3)ccc21 | –
38 | 117 | CCn1cc(NC(=O)O[C@H](C)c2ccc(C)cc2)c2cc(-c3nc(CN4CCC(O)CC4)cs3)ccc21 | –
39 | 34.1 | CCn1cc(NC(=O)OCc2ccc3c(c2)OCO3)c2cc(-c3nc(CN4CCC(O)CC4)cs3)ccc21 | –
40 | 0.43 | CCn1cc(NC(=O)OCc2cc(Cl)cc(Cl)c2)c2cc(-c3nc(CN4CCN(CCO)CC4)cs3)ccc21 | Activity [2]: 3.43 a.u.; Activity [3]: Active; Activity [4]: Active; Activity [5]: 3.25 a.u.; Activity_index [6]: 2.04; Activity [7]: Active; Activity_index [8]: 2.01; inhibition [9]: Dose-dependent effect
41 | 34.7 | CCn1cc(NC(=O)OCc2ccc3c(c2)OCO3)c2cc(-c3nc(CN4CCC[C@H]4CO)cs3)ccc21 | –
42 | 122 | CCn1cc(NC(=O)OCc2ccccc2)c2cc(-c3nc(CN4CCC[C@H]4CO)cs3)ccc21 | –
43 | 135 | CCn1cc(C(=O)N/N=C/c2ccc(F)cc2)c2cc(-c3nc(CN4CCN(CCO)CC4)cs3)ccc21 | –
44 | 1.01 | CCn1cc(NC(=O)OCc2ccc(F)c(F)c2)c2cc(-c3nc(CN4CCC(O)CC4)cs3)ccc21 | Activity [2]: 3.85 a.u.; Activity [3]: Active; Activity [10]: Dose-dependent effect; Activity [4]: Active; Activity_index [11]: 4.66; Activity [5]: 3.37 a.u.; Activity_index [6]: 3.2; Activity [7]: Active; inhibition [9]: Dose-dependent effect
45 | 127 | CCn1cc(NC(=O)OCc2cccc(Cl)c2Cl)c2cc(-c3nc(CN4CCC(O)CC4)cs3)ccc21 | –
46 | 62.7 | CCn1cc(NC(=O)OCc2cccc(Cl)c2Cl)c2cc(-c3nc(CN4CCN(CCO)CC4)cs3)ccc21 | –
47 | 30.7 | CCn1cc(NC(=O)OCc2ccc3c(c2)OCO3)c2cc(-c3nc(CN(CCO)CCO)cs3)ccc21 | –
48 | 36.9 | CCn1cc(NC(=O)O[C@H](C)c2ccc(C)cc2)c2cc(-c3nc(CN4CCC[C@H]4CO)cs3)ccc21 | –
49 | 69.4 | CCn1cc(C(=O)N/N=C(\C)c2ccc(F)cc2)c2cc(-c3nc(CN4CCC(O)CC4)cs3)ccc21 | –
50 | 107 | CCn1cc(C(=O)N/N=C/c2ccc3c(c2)OCO3)c2cc(-c3nc(CN4CCC(O)CC4)cs3)ccc21 | –
51 | 180 | CCn1cc(C(=O)N/N=C/c2ccc(Cl)cc2)c2cc(-c3nc(CN4CCC(O)CC4)cs3)ccc21 | –
52 | 21.3 | CCn1cc(NC(=O)OCc2cc(Cl)cc(Cl)c2)c2cc(-c3nc(CN(CCO)CCO)cs3)ccc21 | –

Source: ChEMBL document CHEMBL4613326 (J Med Chem, 2020)
